# Results reported in patent US20020137929A1, “1 - (3-heterocyclylphenyl) isothiourea, -isourea, -guanidine and -amidine herbicidal agents” (Intellectual Property Department, BASF Aktiengesellschaft, priority 1998, published 2002).
# What was measured:
# [1] = tested on: TRZAWR (Wheat, Winter, cv Riband); assay: Postemergence herbicidal evaluation; type: in vivo, Triticum aestivum; conditions: postemergence
# Outline: (§1)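 Herbicidal effect was judged by eye on a 0–9 scale covering stand, vigor, deformity, size and chlorosis, compared with controls, four to five weeks after seedlings about two weeks old were sprayed (40 psi, ~0.0156–0.500 kg/ha).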
# [2] = tested on: IPOHE (Morningglory, Ivyleaf); assay: Preemergence herbicidal evaluation; type: in vivo, Ipomoea hederacea; conditions: rated 4-5 weeks after treatment
# Outline: (§2)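 Steps: mix seeds into potting soil; plant atop ~1 inch soil; spray compound in aqueous acetone (~0.0156-0.500 kg/ha equivalent); maintain in greenhouse with watering; rate visually 0-9 versus control at 4-5 weeks.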
# [3] = tested on: ECHORC (Watergrass (Calif.)); assay: Preemergence weed control under flooded paddy conditions; type: in vivo, Echinochloa oryzoides; conditions: rated 3-4 weeks after treatment
# Outline: (§3)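 Herbicidal effect is scored visually on a 0-9 scale against an untreated control, three to four weeks after compounds are pipetted into the flood water (1.5 to 3 cm deep) over seeds planted in silt loam at 0.5 cm depth. Rates: about 0.0313 to 0.500 kg/ha.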
# ECHCG (Barnyardgrass) = assay: Preemergence herbicidal evaluation; type: in vivo, Echinochloa crus-galli; conditions: rated 4-5 weeks after treatment
# Outline: as §2
# [4] = tested on: IPOHE (Morningglory, Ivyleaf); assay: Postemergence herbicidal evaluation; type: in vivo, Ipomoea hederacea; conditions: postemergence
# Outline: as §1
# GALAP (Galium) = assay: Postemergence herbicidal evaluation; type: in vivo, Galium aparine; conditions: postemergence
# Outline: as §1
# ABUTH (Velvetleaf) = assay: Preemergence herbicidal evaluation; type: in vivo, Abutilon theophrasti; conditions: rated 4-5 weeks after treatment
# Outline: as §2
# [5] = tested on: SAGPY (Arrowhead (Pygmaea)); assay: Postemergence weed control under flooded paddy conditions; type: in vivo, Sagittaria pygmaea; conditions: postemergence weeds, rated 3 to 4 weeks after treatment
# Outline: (§4)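 Injury ratings (0–9 scale covering stand, vigor, malformation, size, chlorosis and overall appearance versus control) were made three to four weeks after treatment. Test material, about 0.0313 to 0.500 kg/ha a.i. in 50/50 v/v aqueous/acetone, was added to flood water 1.5 to 3 cm deep over 3 to 5 cm weeds and 1.5 to 2.5 leaf rice.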
# CYPIR (Rice Flatsedge) = assay: Preemergence weed control under flooded paddy conditions; type: in vivo, Cyperus iria; conditions: rated 3-4 weeks after treatment
# Outline: as §3
# [6] = tested on: ECHORC (Watergrass (Calif.)); assay: Postemergence weed control under flooded paddy conditions; type: in vivo, Echinochloa oryzoides; conditions: postemergence weeds, rated 3 to 4 weeks after treatment
# Outline: as §4
# ZEAMX (Corn, Field) = assay: Preemergence herbicidal evaluation; type: in vivo, Zea mays; conditions: rated 4-5 weeks after treatment
# Outline: as §2
# SETVI (Foxtail, Green) [7] = assay: Preemergence herbicidal evaluation; type: in vivo, Setaria viridis; conditions: rated 4-5 weeks after treatment
# Outline: as §2
# SETVI (Foxtail, Green) [8] = assay: Postemergence herbicidal evaluation; type: in vivo, Setaria viridis; conditions: postemergence
# Outline: as §1
smiles,measurement,setting,value
"CCOC(=O)[C@H](Cc1ccccc1)N1C(=O)CSC1=Nc1cc(-n2c(=O)cc(C(F)(F)F)n(C)c2=O)c(F)cc1Cl [Compound 80, Ethyl α-benzyl-2-{{2-chloro-5-[3,6-dihydro-3-methyl-2,6-dioxo-4-(trifluoromethyl)-1(2H)-pyrimidinyl]-4-fluorophenyl}imino}-4-oxo-3-thiazolidineacetate, L-]",TRZAWR herbicidal rating,[1]; rate 0.0158 kg/ha,3.5
same,TRZAWR herbicidal rating,[1]; rate 0.0315 kg/ha,3.5
same,TRZAWR herbicidal rating,[1]; rate 0.0630 kg/ha,4.0
same,Preemergence herbicidal rating IPOHE,[2]; rate 0.0156 kg/ha,0.0
same,Preemergence herbicidal rating IPOHE,[2]; rate 0.0313 kg/ha,0.0
same,Preemergence herbicidal rating IPOHE,[2]; rate 0.0625 kg/ha,0.0
same,Preemergence herbicidal rating IPOHE,[2]; rate 0.1250 kg/ha,4.0
same,Preemergence herbicidal rating IPOHE,[2]; rate 0.2500 kg/ha,9.0
same,ECHORC herbicidal effect rating,[3]; 0.0313 kg/ha,9.0
same,ECHORC herbicidal effect rating,[3]; 0.0625 kg/ha,9.0
same,ECHORC herbicidal effect rating,[3]; 0.1250 kg/ha,9.0
same,ECHORC herbicidal effect rating,[3]; 0.2500 kg/ha,9.0
same,Preemergence herbicidal rating ECHCG,ECHCG (Barnyardgrass); rate 0.0156 kg/ha,0.0
same,Preemergence herbicidal rating ECHCG,ECHCG (Barnyardgrass); rate 0.0313 kg/ha,0.0
same,Preemergence herbicidal rating ECHCG,ECHCG (Barnyardgrass); rate 0.0625 kg/ha,0.0
same,Preemergence herbicidal rating ECHCG,ECHCG (Barnyardgrass); rate 0.1250 kg/ha,1.0
same,Preemergence herbicidal rating ECHCG,ECHCG (Barnyardgrass); rate 0.2500 kg/ha,0.0
same,IPOHE herbicidal rating,[4]; rate 0.0158 kg/ha,9.0
same,IPOHE herbicidal rating,[4]; rate 0.0315 kg/ha,9.0
same,IPOHE herbicidal rating,[4]; rate 0.0630 kg/ha,9.0
same,GALAP herbicidal rating,GALAP (Galium); rate 0.0158 kg/ha,2.0
same,GALAP herbicidal rating,GALAP (Galium); rate 0.0315 kg/ha,4.0
same,GALAP herbicidal rating,GALAP (Galium); rate 0.0630 kg/ha,5.0
same,Preemergence herbicidal rating ABUTH,ABUTH (Velvetleaf); rate 0.0156 kg/ha,0.0
same,Preemergence herbicidal rating ABUTH,ABUTH (Velvetleaf); rate 0.0313 kg/ha,1.0
same,Preemergence herbicidal rating ABUTH,ABUTH (Velvetleaf); rate 0.0625 kg/ha,9.0
same,Preemergence herbicidal rating ABUTH,ABUTH (Velvetleaf); rate 0.1250 kg/ha,9.0
same,Preemergence herbicidal rating ABUTH,ABUTH (Velvetleaf); rate 0.2500 kg/ha,9.0
same,Herbicidal rating SAGPY,[5]; Rate 0.0313 kg/ha,0.0
same,Herbicidal rating SAGPY,[5]; Rate 0.0625 kg/ha,0.0
same,Herbicidal rating SAGPY,[5]; Rate 0.1250 kg/ha,0.0
same,Herbicidal rating SAGPY,[5]; Rate 0.2500 kg/ha,0.0
same,CYPIR herbicidal effect rating,CYPIR (Rice Flatsedge); 0.0313 kg/ha,5.0
same,CYPIR herbicidal effect rating,CYPIR (Rice Flatsedge); 0.0625 kg/ha,7.0
same,CYPIR herbicidal effect rating,CYPIR (Rice Flatsedge); 0.1250 kg/ha,7.0
same,CYPIR herbicidal effect rating,CYPIR (Rice Flatsedge); 0.2500 kg/ha,7.0
same,Herbicidal rating ECHORC,[6]; Rate 0.0313 kg/ha,9.0
same,Herbicidal rating ECHORC,[6]; Rate 0.0625 kg/ha,9.0
same,Herbicidal rating ECHORC,[6]; Rate 0.1250 kg/ha,9.0
same,Herbicidal rating ECHORC,[6]; Rate 0.2500 kg/ha,9.0
same,Preemergence herbicidal rating ZEAMX,"ZEAMX (Corn, Field); rate 0.0156 kg/ha",0.0
same,Preemergence herbicidal rating ZEAMX,"ZEAMX (Corn, Field); rate 0.0313 kg/ha",0.0
same,Preemergence herbicidal rating ZEAMX,"ZEAMX (Corn, Field); rate 0.0625 kg/ha",1.0
same,Preemergence herbicidal rating ZEAMX,"ZEAMX (Corn, Field); rate 0.1250 kg/ha",3.0
same,Preemergence herbicidal rating ZEAMX,"ZEAMX (Corn, Field); rate 0.2500 kg/ha",3.0
same,Preemergence herbicidal rating SETVI,"SETVI (Foxtail, Green) [7]; rate 0.0156 kg/ha",0.0
same,Preemergence herbicidal rating SETVI,"SETVI (Foxtail, Green) [7]; rate 0.0313 kg/ha",0.0
same,Preemergence herbicidal rating SETVI,"SETVI (Foxtail, Green) [7]; rate 0.0625 kg/ha",1.0
same,Preemergence herbicidal rating SETVI,"SETVI (Foxtail, Green) [7]; rate 0.1250 kg/ha",7.0
same,Preemergence herbicidal rating SETVI,"SETVI (Foxtail, Green) [7]; rate 0.2500 kg/ha",7.0
same,SETVI herbicidal rating,"SETVI (Foxtail, Green) [8]; rate 0.0158 kg/ha",1.0
same,SETVI herbicidal rating,"SETVI (Foxtail, Green) [8]; rate 0.0315 kg/ha",2.0
same,SETVI herbicidal rating,"SETVI (Foxtail, Green) [8]; rate 0.0630 kg/ha",4.0
